Experimental data published in US20080241208A1, “Methods, Compositions and Devices For Promoting Anglogenesis” (priority 2005, published 2008).

How the values were obtained:
[1] = system: HUVECs; assay: In-vitro angiogenesis model: network formation in collagen gel matrix; format: cell-based; conditions: pulsed with PMA, bFGF and NOC18 (10-9) for 2 hr followed by PMA, bFGF and VEGF-C for 70 hr; AngioQuant; FIG. 3
Source text: FIG. 4 depicts network formation in HUVECs cultured in collagen gel matrix and treated with PMA, bFGF, and VEGF-C for 72 hr (Positive control). […] Image on left of each figure is stained with phalloidin (cytoskeletal Actin-F marker) and the nuclear dye, Hoechst. Image on right depicts network formation (red lines) used by AngioQuant quantification program (Niemiströ et al 2005). Magnification=4×. The number of networks is 48 in FIG. 3, 44 in FIG. 4, 12 in FIG. 5.

[2] = system: Rabbits; assay: In-vivo angiogenesis rabbit subcutaneous implant studies
Source text: Rabbits were implanted subcutaneously with nitric oxide generating agent dibenzo[e,k]-2,3,8,9-tetramethyl-1,4,7,10-tetraaza-cyclododeca-1,3,7,9-tetraene, cyclen and plain polymer disks.

SMILES	number of networks [1]	blood vessel formation around disks ([2]; explants sectioned and stained with H&E, 20× magnification)	angiogenic activity versus control ([2]; subcutaneous polymer disk explants at 28 d and 8 weeks)
NCCN(CCN)/[N+]([O-])=N/O [NOC18]	48		
CC1=C(C)N=c2ccccc2=NC(C)=C(C)N=c2ccccc2=N1 [dibenzo[e,k]-2,3,8,9-tetramethyl-1,4,7,10-tetraaza-cyclododeca-1,3,7,9-tetraene]		increased blood vessel formation	increased angiogenic activity
